Test results taken from patent US20140309192A1, “MODULATORS OF THE G PROTEIN-COUPLED MAS RECEPTOR AND THE TREATMENT OF DISORDERS RELATED THERETO” (ARENA PHARMACEUTICALS, INC., priority 2011, published 2014).

Columns and labels:
[1] = tested on: isolated perfused mouse hearts; assay: Ex vivo coronary flow, Langendorff perfused isolated mouse hearts; settings: 1 μM
Procedure: Coronary flow was measured in male Mas^−/− and Mas^+/+ mice, and in male Sprague-Dawley rats using Langendorff perfused isolated hearts. Freshly isolated hearts were placed on a Langendorff apparatus (Harvard Apparatus) and perfused at a constant pressure of 80 mmHg with a modified Krebs-Henseleit buffer solution (Sigma K3753) and aerated with 95% oxygen and 5% carbon dioxide, pH 7.35-7.4. The temperature was maintained at 37° C. by surrounding the heart with a water-heated glassware chamber. Coronary flow was measured using a flow measurement system (Harvard Apparatus) which included the transit time flow meter and a flow probe built into an adaptor block located at the perfusate inflow port. Data were recorded continuously using an ISOHEART data acquisition system (Harvard Apparatus). After a 20-min equilibration period, Mas compounds were added to the perfusion buffer reservoir at the desired concentration (agonist AR234960 at 1 μM, or inverse agonist AR244555 at 5 μM) and coronary flow was recorded for 10 min

[2] = tested on: isolated perfused rat hearts; assay: Global ischemia-reperfusion in Langendorff perfused rat hearts (coronary flow, arrhythmias)
Procedure: For ischemia-reperfusion experiments, Langendorff perfused rat hearts were equilibrated for 20 min and then baseline coronary flow was recorded for 10 min Thereafter, all hearts were subjected to 30 min of global ischemia by stopping perfusate flow, followed by 30 min of reperfusion with either vehicle (0.01% DMSO), Mas agonist AR234960 (1 μM) or Mas inverse agonist AR244555 (5 μM) added to the perfusion buffer. Electrocardiography was also continuously recorded during the observation period through electrodes attached directly to the surface of the ventricles to detect cardiac arrhythmias during reperfusion.

[3] = tested on: Male Sprague Dawley rats; assay: Rat model of transient cerebral ischemia/stroke; assay type: in vivo; settings: 3 mg/kg bolus i.v. 1 min prior to MCA occlusion or at the onset of reperfusion
Procedure: Rats were anesthetized with pentobarbital (70 mg/kg). Normal body temperature was maintained by placing the animals on heating pads. A midline neck incision was made and soft tissues were pulled apart, and the external carotid artery (ECA), and internal carotid artery (ICA) were exposed. […] An incision was made around the left hind leg area and exposing the femoral vein. A 30-mm length of 3-0 monofilament nylon suture coated with 0.1% poly-lysine was inserted into the right ICA lumen through a small incision at about 4-mm proximal to the carotid bifurcation. The filament was advanced 18-22 mm from the start of the carotid bifurcation to block the origin of the right middle cerebral artery (MCA) for the ischemia time designed. Reperfusion was obtained by pulling out the occluding filament at the end of the MCA. After occlusion the tissues around the neck were closed with 4-0 silk suture (Ethicon, 1677G). The skin around the neck was closed with metal clips and the cutting area was treated with iodine. At the end of the reperfusion period (e.g. 24 h) the rats were anesthetized with Nembutal (70 mg/kg) and the brains were removed. […] Whole area (WA) and infarct area (IA) were measured for each coronal section. Brain damage was assessed by IA/(IA+WA). […]

[4] = tested on: Male Sprague-Dawley rats; assay: Myocardial ischemia/reperfusion injury in rats, infarct size (Example 4); assay type: in vivo, rat
Procedure: Adult rats were anesthetized with sodium pentobarbital (50 mg/kg i.p.) and placed in the supine position on a surgery frame with a heating pad (37° C.) beneath. Rats were tracheostomized and ventilated with a SAR-830 small-animal ventilator (Model 683, Harvard Apparatus) to provide room air at a tidal volume of 2.5 mL/stroke and at a rate of 70 stroke/min. Polyethylene catheters were placed in the right internal carotid artery and the external jugular vein for measurement of mean arterial blood pressure and infusion of drug or vehicle, respectively.
Myocardial I/R injury was produced as follows. A left thoracotomy was performed approximately 20 mm from the sternum to expose the heart at the fifth intercostal space. […]
Animals were randomly divided into the following 4 groups: (1-3) low, medium, and high doses of Compound 170 administered by continuous i.v. infusion starting 30 min before coronary artery ligation (n=6 per dose), and (4) 20% HPBCD (vehicle, hydroxypropyl-β-cyclodextrin) administered by continuous i.v. infusion beginning 30 min before coronary artery ligation (n=6). […] Mean arterial blood pressure was measured after stabilization and just prior to drug infusion (baseline) and again following 25 min of drug or vehicle infusion, before coronary artery ligation. […]

Structure (SMILES)	coronary flow, Mas knockout (Mas−/−) mouse hearts [1]	coronary flow, Mas+/+ mouse hearts [1]	coronary flow, wild type (Mas+/+) mouse hearts [1]	frequency of prolonged ventricular arrhythmias during reperfusion ([2]; 1 μM, three out of seven hearts) [%]	coronary flow during reperfusion compared to vehicle treated hearts ([2]; 30 min global ischemia, 30 min reperfusion, AR234960 1 μM, AR244555 5 μM in perfusate during reperfusion)	brain damage associated with transient ischemic injury [3]	reduction of myocardial infarction size ([4]; FIG. 5, rats subjected to coronary artery ligation and reperfusion)	myocardial infarct size after reperfusion compared to vehicle treatment ([4]; medium (1.878 mg/kg loading + 0.492 mg/kg/h) and high dose (6.26 mg/kg loading + 1.64 mg/kg/h) i.v., 30 min ischemia, 2 h reperfusion)
COc1cc([N+](=O)[O-])ccc1S(=O)(=O)N1CC(CN2CCN(c3ccccn3)CC2)C(c2cccc(F)c2)C1 (centres unmarked) [AR234960]	absent	64 % of baseline	decreased coronary flow significantly	42.9	trend toward decreased coronary flow			
NC(=O)[C@H](CO)NCc1ccc(C(=O)Nc2ccc(Cl)cc2N2CCN(CCC(F)(F)F)CC2)c(F)c1F [Compound 170, (S)-4-((1-Amino-3-hydroxy-1-oxopropan-2-ylamino)methyl)-N-(4-chloro-2-(4-(3,3,3-trifluoropropyl)piperazin-1-yl)phenyl)-2,3-difluorobenzamide]						reduced brain damage	dose dependent effect	significant decrease
